Where two headings read alike, the source gives them in different places.
Key:
P2X3 receptors = target: T1, P2X3 receptors (Homo sapiens, UniProt P56373); conditions: Jarvis et al, 2002; cited from earlier work
T1 sequence (P56373 1-397): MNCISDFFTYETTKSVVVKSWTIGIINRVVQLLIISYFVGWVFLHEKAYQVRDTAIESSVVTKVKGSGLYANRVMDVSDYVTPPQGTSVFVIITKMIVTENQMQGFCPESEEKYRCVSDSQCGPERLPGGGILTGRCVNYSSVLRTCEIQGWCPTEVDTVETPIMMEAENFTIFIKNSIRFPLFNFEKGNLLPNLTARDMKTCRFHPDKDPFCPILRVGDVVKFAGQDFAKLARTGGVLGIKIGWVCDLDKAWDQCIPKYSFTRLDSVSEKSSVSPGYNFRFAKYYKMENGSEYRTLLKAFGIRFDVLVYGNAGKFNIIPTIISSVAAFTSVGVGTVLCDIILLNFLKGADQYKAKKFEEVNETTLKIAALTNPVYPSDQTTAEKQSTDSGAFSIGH

male Wistar rats = experiment: Formalin test (nociceptive behaviour, spontaneous jerking of injected paw); type: in vivo, rat; conditions: for IC50: Rattus norvegicus, Table 1, concentration; for IC50 First phase (acute pain), calculated / IC50 Second phase (chronic pain), calculated: Table 1, assuming 40 g rat body weight; for First phase (acute pain) / First phase (acute pain) (μg/kg) / Second phase (chronic pain) / Second phase (chronic pain) (μg/kg): Table 2; for First phase (acute pain) Human (70 kg) nmol / Second phase (chronic pain) Human (70 kg) nmol: Table 2, estimated indicative dose for 70 kg human; for First phase (acute pain) Rat (40 g) nmol / Second phase (chronic pain) Rat (40 g) nmol: Table 2, per 40 g rat
Experimental: FIG. 6. Effects of subcutaneous Ap4A analogues on pain responses induced by intraplantar (right hindpaw) formalin injection. Rats were subcutaneously injected with formalin solution alone (0.5%, 50 μL, control) or co-injected with the formalin solution and solutions with AppCH2ppA (1 μM-100 μM, 100 μL) or AppNHppA (0.1 μM-100 μM, 100 μL). Age-matched control animals were injected with saline. A. Time-course of the effects of subcutaneous AppCH2ppA (a) and AppNHppA (b) on the number of the spontaneous jerkings of the injected paw. B. Bar-graphs of the effects of AppCH2ppA (a, b) and AppNHppA (c, d) on the integral number of spontaneous jerkings. Measurements were made during the acute phase (0-6 min) and tonic phase (7-45 min) of the formalin response. C. Dose-response curves for AppCH2ppA (a) and AppNHppA (b) during tonic and acute phases.
The formalin test experiments were performed on 21-day old male Wistar rats, weighing 40±5 g according to the method described previously (Simonetti et al, 2006; Yegutkin et al, 2008). Briefly, animal was acclimated to an acrylic observation chamber for at least 1 h before the injection of formalin ([…] of 0.5% solution in 0.9% saline) into the dorsal surface of the right hindpaw. Age-matched control animals were injected with saline (100 μL). Immediately after the injection, each animal was returned to the observation chamber and its behavioural characteristics were recorded for 45 min. We noticed consistently observed type of response: spontaneous jerking of the injected paw. The number of jerks was measured for each […], using self-developed computer software.
The effects of AppNHppA and AppCH2ppA were examined on the behavioral reactions of rats in inflammatory pain models. Injection of diluted formalin into a rodent's hindpaw produces a biphasic nociceptive response consisting of immediate (acute phase) and tonic (inflammatory phase) components. The first phase of a formalin response (i.e. 0-5 min after injection) involves a direct effect of formalin on the pain receptors, while changes in animal behavior during the second tonic phase (i.e. 7-45 min after injection) are caused by hyperalgesia that develops due to the sensitization of nociceptive and spinal neurons via mechanisms that are triggered by repetitive stimulation during the first phase.

[1] = read-out: IC50 First phase (acute pain)
[2] = read-out: IC50 Second phase (chronic pain)

SMILES	concentration range of binding to P2X3 receptors (P2X3 receptors)	IC50 (male Wistar rats; [1]) [µM]	IC50 (male Wistar rats; [2]) [µM]	IC50 First phase (acute pain), calculated (male Wistar rats) [nmol/kg]	IC50 Second phase (chronic pain), calculated (male Wistar rats) [nmol/kg]	First phase (acute pain) (male Wistar rats) [nmol/kg]	First phase (acute pain) (μg/kg) (male Wistar rats)	Second phase (chronic pain) (male Wistar rats) [nmol/kg]	Second phase (chronic pain) (μg/kg) (male Wistar rats)	First phase (acute pain) Human (70 kg) nmol (male Wistar rats) [nmol]	Second phase (chronic pain) Human (70 kg) nmol (male Wistar rats) [nmol]	First phase (acute pain) Rat (40 g) nmol (male Wistar rats) [nmol]	Second phase (chronic pain) Rat (40 g) nmol (male Wistar rats) [nmol]
O=C(O)c1cc(C(=O)O)c(C(=O)N(Cc2cccc(Oc3ccccc3)c2)[C@H]2CCCc3ccccc32)cc1C(=O)O [A-317491]	within a micromolar range	–	–	–	–	–	–	–	–	–	–	–	–
Nc1ncnc2c1ncn2[C@@H](CO)O[C@@H](CO)COP(=O)(O)OP(=O)(O)CP(=O)(O)OP(=O)(O)OC[C@H](CO)O[C@H](CO)n1cnc2c(N)ncnc21 [AdiolppCH2ppAdiol]	–	~50	0.084 ± 0.14	~125	0.21 ± 0.35	~125	(104) μg/kg	0.21 ± 0.35	(0.175) μg/kg	8750	14.7	5	0.0084
Nc1nc2c(ncn2[C@@H]2O[C@H](COP(=O)(O)OP(=O)(O)CP(=O)(O)OP(=O)(O)OC[C@H]3O[C@@H](n4cnc5c(N)ncnc54)C(O)C3O)C(O)[C@@H]2O)c(=O)[nH]1 (stereo partly shown) [AppCH2ppG]	–	> 100	0.18 ± 0.12	>250	0.45 ± 0.30	>250	(209) μg/kg	0.45 ± 0.30	(0.376) μg/kg	17500	31.5	10	0.018

From US20150119352A1, “DINUCELOSIDE POLYPHOSPHATES FOR THE TREATMENT OF PAIN” (GlobalAcorn Ltd., priority 2012, published 2015)
